According to US7786046B2, “Benzoyl-substituted serineamides” (BASF Aktiengesellschaft, priority 2005, dated 2010):

Row | Compound | melting point
1 | CNC(=O)C(NC(=O)c1ccc(F)cc1C(F)(F)F)C(O)C(F)(F)F (racemic) [Compound 3.1, 4-Fluoro-N-(3,3,3-trifluoro-2-hydroxy-1-methylcarbamoylpropyl)-2-trifluoromethylbenzamide] | 212 °C
2 | C=CC(O)C(NC(=O)c1ccc(F)cc1C(F)(F)F)C(=O)NC (racemic) [Compound 3.3, N-(2-Hydroxy-1-methylcarbamoylbut-3-enyl)-4-fluoro-2-trifluoromethylbenzamide] | 163 °C
3 | CNC(=O)C(NC(=O)c1ccc(F)cc1C(F)(F)F)C(O)/C(Cl)=C/c1ccccc1 (racemic) [Compound 3.7, N-(3-Chloro-2-hydroxy-1-methylcarbamoyl-4-phenylbut-3-enyl)-4-fluoro-2-trifluoromethylbenzamide] | 140 °C
4 | CNC(=O)C(NC(=O)c1ccc(F)cc1C(F)(F)F)C(O)CO (stereo not shown) [Compound 3.8, 2-(4-Fluoro-2-trifluoromethylbenzoylamino)-3,4-dihydroxy-N-methylbutyramide] | 163 °C
